From patent US11344510B2, “Arylcyclohexylamine derivatives and their use in the treatment of psychiatric disorders” (Gilgamesh Pharmaceuticals, Inc., priority 2019, dated 2022) come the findings set out here.

Entries after “also recorded” stand apart in the source; their conditions may differ. Counter-ions that a name gives are not always drawn. Like-named read-outs stand apart in the source and are kept apart here.

Data set [1] relates to mice (forced swim test). As to the kind of experiment: Forced swim test in mice, 2-h pre-treatment. The note with it: s.c. The data set is classed as in vivo, CD-1 mice. On the procedure:
Animals. Male CD-1 mice, aged ˜8 weeks (body weight ˜25-30 g), were used in the experiments. Animals were singly housed under controlled temperatures and 12-hour light/dark cycles, with ad libitum food and water. These studies were carried out in strict accordance with the recommendations in the European Convention for the Protection of Vertebrate Animals Used for Experimental and Other Scientific Purposes. All efforts were made to minimize suffering.
Drugs and Drug Administration. Imipramine hydrochloride was administered intraperitoneally (i.p.) at a dose of 20 mg/kg. Other compounds were tested as the racemates (indicated by “rac” nomenclature) and were administered subcutaneously (s.c.) with doses calculated based on the freebase. Normal saline was used as the vehicle and all compounds were administered at a volume of 5 mL/kg, 2 h before behavioral testing.
Forced Swim Test (FST). Group size was n=10 per treatment, except for vehicle and rac-ketamine groups, which represented n=20 per treatment. Mice were placed individually in a glass cylinder measuring 19 cm wide by 30 cm tall and filled with 24° C. water to a depth of 18 cm. The activity of each mouse was video recorded during each 6-minute session and total immobility time was scored during the last 4 minutes of the session. The water was changed between each mouse to avoid any influence on behavior.
Statistical Analysis. […]

Data set [2] concerns the target MK-801 binding site of the N-methyl-D-aspartate receptor (NMDAR). As to the kind of experiment: NMDAR radioligand binding with [3H]MK-801, Method A. More on the design: species or system Wistar rat. Particulars: MK-801 site, Method A, Wistar rat brain (minus cerebellum), 5.0 nM [3H]MK-801; read-out: NMDAR Ki ± SEM. The method, then: Radioligand Binding—Method A. Affinity of the test compounds for NMDAR was determined in radioligand binding experiments with [^3H]MK-801 by Eurofins Panlabs, Inc., using methods adapted from the literature (Javitt et al. 1987; Reynolds et al. 1989) and under the conditions described in Table 12.

A short description of data set [3]: Oral bioavailability in rats, Method A. The format is in vivo. Particulars: plasma, Sprague Dawley rats. The method, then: Animals. Male Sprague Dawley rats were used in these studies Animals were randomly assigned to treatment groups and were fasted overnight before oral dosing.
Drugs. The test compound was dissolved in normal saline and administered intravenously (iv) or orally (po) at a dose of 10 mg/kg (calculated based on freebase) and at a volume of 5 mL/kg body weight. The compound was tested as the racemate (indicated by “rac” nomenclature).
Sample Collection and Bioanalysis. Blood samples were collected through external jugular vein (via cannulation) at 0.083, 0.25, 0.5, 1, 2, 4, 8 and 24 h post-dose (total 8 time points/rat, 4 rats per administration route). At each time point, ˜0.2 mL of blood was withdrawn and transferred into a pre-labeled 0.5 mL of micro centrifuge tube containing 4 μL of 200 mM K2EDTA solution as anticoagulant and mixed gently by inverting the tube to facilitate mixing of anticoagulant with the blood. Blood samples were kept on ice until centrifugation. The collected blood samples were centrifuged at 4000 rpm for 10 min at 4° C. Plasma samples were separated after centrifugation, transferred into pre-labeled tubes, and stored at −70° C. until bioanalysis. For bio analysis, 50 μL aliquots of plasma study samples or calibration standards were added to pre-labeled eppendorf tubes and 10 μL of an internal standard solution (diclofenac, 5 μg/mL in 50:50 v/v methanol:water) was added. Samples were quenched with 500 μL of precipitation solution (0.1% v/v formic acid in acetonitrile) and vortexed. All the samples were centrifuged at 14,000 rpm for 10 minutes at 4° C. Following centrifugation, 5 μL of each clear supernatant was analyzed with a fit-for-purpose LC-MS/MS method, with authentic samples of the analyte used for calibration and identification.
Data Analysis. Pharmacokinetic parameters were estimated using the non-compartmental analysis tool of Phoenix® WinNonlin software (Ver 8.1). The drug concentrations of samples below the lower limit of quantitation (LLOQ) were designated as zero.

The nature of data set [4]: Formation of metabolites 11R/11S in RLM (High Activity conditions). The format is in vitro ADME, Sprague Dawley rats. The note with it: LC-MS/MS. On the procedure: RLM Stability (High Activity). Pooled RLM from male Sprague Dawley rats (XenoTech R1000, lot #1910100) were used. Microsomal incubations were carried out in 96-well plates in 5 aliquots of 40 μL each (one for each time point). Liver microsomal incubation medium consisted of PBS (100 mM, pH 7.4), MgCl2 (3.3 mM), NADPH (3 mM), glucose-6-phosphate (5.3 mM), and glucose-6-phosphate dehydrogenase (0.67 units/mL), with 1.0 mg of liver microsomal protein per mL. Control incubations were performed by replacing the NADPH-cofactor system with PBS. Test compounds (1 μM, final solvent concentration 1.6%) were incubated with microsomes at 37° C., shaking at 100 rpm. Incubations were performed in duplicate. Five time points over 60 minutes were analyzed. […] Supernatants were analyzed for parent compound remaining using a fit-for-purpose liquid chromatography-tandem mass spectrometry (LC-MS/MS) method, with authentic samples of each analyte used for identity confirmation.
This condition was also used for experiments measuring the formation of metabolite 11R from compounds 14R and 88R and formation of metabolite 11S from compounds 14S and 88S. The concentrations of 11R and 11S formed during the incubations were quantified using a fit-for-purpose liquid chromatography-tandem mass spectrometry (LC-MS/MS) method, with authentic samples of each analyte used for calibration and identity confirmation.

As usually defined, the Ki is a measure of affinity in units of concentration, obtained from inhibition or displacement. As for `CNC1(c2ccccc2)CCCCC1=O` (racemic) [Compound 14rac, 2-(methylamino)-2-phenylcyclohexan-1-one hydrochloride], the “immobility time in FST” value in data set [1] (2 h before test, last 4 minutes, relative to vehicle, hydrochloride) was “reduced time immobile; also recorded: induced antidepressant-like effects”. In addition, the “potency at reducing immobility relative to rac-ketamine” value in data set [1] (2 h pre-treatment) is given as “at least 30 fold”. Moreover, in data set [2], the Ki came to 0.76 µM.
For orientation: Cmax means the maximum level reached in the sampled fluid or tissue. As to `CNC1(c2ccccc2Cl)CCCCC1=O` (racemic) [rac-ketamine, racemic ketamine, reference compound], the AUC(0-t) in data set [3] (male, rat, 10 mg/kg iv, read-out: AUC0-last (iv) (converted)) was 1340 ng·h/mL; in data set [3] (male, rat, 10 mg/kg po, read-out: AUC0-last (po) (converted)) it was 121 ng·h/mL. Moreover, the half-life came to 41.6 min in data set [3] (male, rat, 10 mg/kg iv, read-out: t1/2 (iv)) and 33.7 min in data set [3] (male, rat, 10 mg/kg po, read-out: t1/2 (po)). The concentration in data set [3] (male, rat, 10 mg/kg po) peaked (Cmax) at 190 ng/mL. The same compound returned a F in data set [3] (10 mg/kg) of 9%.
As to `[2H]C([2H])([2H])N[C@@]1(c2ccccc2)CCCCC1=O` [Compound 88R, (R)-2-((methyl-d3)amino)-2-phenylcyclohexan-1-one], in data set [4], the “formation of metabolites 11R and 11S compared to non-deuterated counterparts” value is given as “attenuated formation; also recorded: decreased formation”.
